The numbers were not newly measured in patent US20250352520A1, “USE OF DEXPRAMIPEXOLE FOR THE TREATMENT OF EOSINOPHILIC COPD” (Areteia Therapeutics, Inc., priority 2024, published 2025), which cites them from elsewhere.

Read-outs that look alike come from different tables or passages of the source.

The conditions of data set [1]: severe, uncontrolled, eosinophilic asthma; cited from earlier work.
For data set [2] the following is noted: patients with COPD, cited from earlier work.
The conditions of data set [3]: cited from earlier work.
For data set [4] the following is noted: COPD; cited from earlier work.

For “benralizumab: an anti-interleukin-5 receptor monoclonal antibody”, in data set [1], the eosinophils result is “effectively depleted eosinophils”, the exacerbations entry was “decreased exacerbations” and the lung function result is “improved lung function”. Further, in data set [2] (all doses, throughout the trial), the blood eosinophils result is recorded as “substantial depletion of blood eosinophils”. Besides, the exacerbations entry in data set [2] is reported as “failed to show statistically significant reduction of exacerbations”.

B1: mepolizumab: a humanized monoclonal antibody against interleukin-5 (antibody, chains of the INN, looked up, V domains shown)
VH: QVTLRESGPALVKPTQTLTLTCTVSGFSLTSYSVHWVRQPPGKGLEWLGVIWASGGTDYNSALMSRLSISKDTSRNQVVLTMTNMDPVDTATYYCARDPPSSLLRLDYWGRGTPVTVSS
VL: DIVMTQSPDSLAVSLGERATINCKSSQSLLNSGNQKNYLAWYQQKPGQPPKLLIYGASTRESGVPDRFSGSGSGTDFTLTISSLQAEDVAVYYCQNVHSFPFTFGGGTKLEIK
Take B1: in data set [3], the asthma exacerbations result is recorded as “significantly reduced asthma exacerbations” and the “biomarkers of asthma control” value is “associated with improvements in biomarkers of asthma control, including eosinophil counts”. Also, in data set [4], the blood eosinophil counts entry is recorded as “effectively reduced blood eosinophil counts”; the “lung function and clinical outcomes” value is “not associated with consistent improvements in lung function and clinical outcomes”.
